# Data published in the SangsterLogP compilation.
# Assay: method code SF, from DOI: 10.1080/00021369.1987.10868331
row,logP,Compound
1,3.8,CCCNc1nc(NCC)nc(SC(F)F)n1
2,2.31,CNc1nc(NC)nc(SC(F)F)n1
3,5.53,CCCCCCNc1nc(NCC)nc(SC(F)F)n1
4,4.7,CC(C)Nc1nc(NC(C)(C)C)nc(SC(F)F)n1
5,3.7,CCCCNc1nc(NC)nc(SC(F)F)n1
6,4.57,CCNc1nc(NC(C)(C)C)nc(SC(F)F)n1
7,1.75,CNc1nc(N)nc(SC(F)F)n1
8,3.27,CNc1nc(NC(C)C)nc(SC(F)F)n1
9,6.61,CCCCCCCCNc1nc(NCC)nc(SC(F)F)n1
10,4.42,CCCCCNc1nc(NC)nc(SC(F)F)n1
11,4.23,CCNc1nc(NC(C)CC)nc(SC(F)F)n1 (stereo unspecified)
12,2.29,CCNc1nc(N)nc(SC(F)F)n1
13,3.69,CCC(C)Nc1nc(NC)nc(SC(F)F)n1 (stereo unspecified)
14,4.25,CC(C)Nc1nc(NC(C)C)nc(SC(F)F)n1
15,3.7,CCNc1nc(NC(C)C)nc(SC(F)F)n1
16,1.21,Nc1nc(N)nc(SC(F)F)n1
17,4.55,CCC(C)Nc1nc(NC(C)C)nc(SC(F)F)n1 (stereo unspecified)
18,3.28,CCCNc1nc(NC)nc(SC(F)F)n1
19,4.71,CCCCCNc1nc(NCC)nc(SC(F)F)n1
20,3.91,CNc1nc(NC(C)(C)C)nc(SC(F)F)n1
21,4.75,CCCCNc1nc(NC(C)C)nc(SC(F)F)n1
22,4.45,CCCNc1nc(NCCC)nc(SC(F)F)n1
23,4.23,CCCNc1nc(NC(C)C)nc(SC(F)F)n1
24,3.28,CCNc1nc(NCC)nc(SC(F)F)n1
25,4.51,CCCCNc1nc(NCC)nc(SC(F)F)n1
26,2.68,CCNc1nc(NC)nc(SC(F)F)n1
